# Key:
# HRECs = test: VEGF-induced tube formation assay in HRECs; type: cell-based, human; conditions: idelalisib 5 μM
# Protocol: A tube formation assay was performed as previously described^63. A collagen gel mixture was added to a 96-well plate (70 μl/well), which was then incubated for about 60 minutes at 37° C. to let the collagen gel polymerize. After polymerization, 4.0×10^4 HRECs were seeded in each well with their cultured medium maintained at a 37° C. incubator. This day was considered day 1. On day 2, the medium was removed and 150 μl of the gel mixture was added to each well supplemented with VEGF, or VEGF plus idelalisib (5 μM). On days 3, three different fields per well were randomly chosen and photographed using the EVOS FL Auto microscope. The results in FIG. 10B are representative of three independent experiments^61, 64, 65. Each bar graph indicates mean±standard deviation of three independent experiments. “*” denotes significant difference between the two compared groups. P<0.05 using an unpaired t-test.
# RPEM cells [1] = test: Cell proliferation assay, RPEM cells with vitreous; type: cell-based, human; conditions: idelalisib 5 μM, 48 hours
# Protocol: 3A. RPEM cells were seeded into a 24-well plate at a density of 3×10^4 cells/well. After 8 hours the cells had attached, the medium was changed to either 0.5 ml DMEM (−) or RV supplemented with idelalisib (5 μM) or its vehicle. After treated for 48 hours, the cells were counted with a hemocytometer under a light microscope. RPEM cells were seeded into wells of a 24-well plate at a density of 3×10^4 cells/well in DMEM/F12 with 10% FBS. Following attachment, the cells were treated with DMEM/F12 or RV (1:2 dilution in DMEM/F12) with or without idelalisib (5 μM). On day 3, the cells were trypsin detached from the plates and counted in a hemocytometer. Each experimental condition was assayed in duplicate, and at least three independent experiments were performed^24, 44.
# activation of Akt = test: VEGF-induced activation of Akt; type: cell-based
# RPEM cells [2] = test: Collagen contraction assay, RPEM cells with vitreous; type: cell-based, human; conditions: idelalisib 5 μM, 48 hours
# Protocol: 3D. The RPEM cells were re-suspended in 1.5 mg/ml of neutralized collagen I at a density of 1×10^6 cells/ml and seeded into wells of a 24-well plate. The solidified gels were overlaid with either DMEM/F12 alone (-), or RV supplemented with idelalisib (5 μM) or its vehicle as indicated. After 48 hours the gel diameter was measured and the gel area were calculated. A photograph of a representative experiment is shown at the bottom of the bar graphs. The mean±standard deviation (SD) of three independent experiments is shown; * denotes […]<0.05 using an unpaired t-test. RPEM cells were re-suspended in 1.5 mg/ml of neutralized collagen […], Fremont, Calif.) (pH 7.2) at ice at a density 1×10^6 cells/ml^24, 54. The mixture was transferred into wells of 24-well plates that had been preincubated overnight with 5 mg/ml bovine serum albumin/PBS. After the collagen had polymerized at 37° C. for 90 minutes, 0.5 ml DMEM/F12 or RV (1:2 dilution in DMEM/F12) with or without idelalisib (5 μM) was added. On day 3, the gel diameter was measured and the gel area was calculated using a formula 3.14×r^2, where r is the radius of the gel. At least three independent experiments were performed^24, 55.
# [3] = test system: angiogenesis (neovascularization) in retina; test: Mouse model of oxygen-induced retinopathy (OIR); type: in vivo; conditions: P12 mice, intravitreal 1 μl of 50 μM, retinas IB4 stained on P17
# Protocol: FIGS. 11A-B. Idelalisib inhibits angiogenesis in a mouse model of oxygen-induced retinopathy (OIR). Litters of P12 mice that had been exposed to 75% oxygen for five days were injected intravitreally with 1 μl ilidelalisib (50 μM) or its vehicle (DMSO). A, On P17, whole-mount-retinas were stained with IB4. B, Analysis of neovascularization (NV) areas from the IB4 stained retinas (n=6). The bar graph data are mean±SD of three retinas. “*” indicates significant difference using an unpaired t test. p<0.05.
# C57BL/6J litters on postnatal day (P) 7 were exposed to 75% oxygen until P12 in the oxygen chamber (Biospherix). Oxygen concentration was monitored daily using an oxygen sensor (Advanced Instruments, GPR-20F)^58, 59. On P12, the pups were anesthetized by intraperitoneal injection of 50 mg/kg ketamine hydrochloride and 10 mg/kg xylazine. During intravitreal injections, eyelids of P12 pups were separated by incision. Pupils were dilated using a drop of 1% tropicamide and the eyes were treated with topical proparacaine anesthesia. Intravitreous injections were performed under a microsurgical microscope using glass pipettes with a diameter of approximately 150 μm at the tip after the eye were punctured at the upper nasal limbus using a BD insulin syringe with the BD ultra-fine needle. One μl of idelalisib or DMSO was injected. […]
# RPEM cells [4] = test: Cell apoptosis (survival) assay, RPEM cells with vitreous; type: cell-based, human; conditions: idelalisib 5 μM, 48 hours, Annexin V/PI FACS
# Protocol: 3B. After RPEM cells reached 80% confluence in 60-mm dishes, the cultured medium was changed to either 3 ml DMEM/F12 or RV supplemented with idelalisib (5 μM) or its vehicle (0.1% dimethyl sulfoxide: DMSO). 48 hours later, the detached cells were washed with phosphate-buffer saline (PBS) and stained with fluorescein isothiocyanate (FITC)-conjugated Annexin V and propidium iodide (PI) and then analyzed by fluorescence-activated cell sorting (FACS). A representative raw data of three experiments below the bar graphs is shown. RPEM cells were seeded into 6 cm-dishes at a density of 2×10^5 cells per dish in DMEM/F12+10% FBS. Following attachment, the cells were treated with DMEM/F12 or RV (1:2 dilution in DMEM/F12) with or without idelalisib ([…]). On day 3, the cells were stained with fluorescein isothiocyanate (FITC)-conjugated annexin V and propidium iodide (PI) following the manufacturer's instructions (BD Biosciences, Palo Alto, Calif.). The cells were analyzed by flow cytometry in a Coulter Beckman XL instrument. At least three independent experiments were performed^24, 44.
compound,measurement,setting,value
CC[C@H](Nc1ncnc2[nH]cnc12)c1nc2cccc(F)c2c(=O)n1-c1ccccc1 [idelalisib],effect on VEGF-stimulated tube formation of HRECs,HRECs,completely blocked
same,effect on vitreous-induced proliferation of RPEM cells,RPEM cells [1],prevented
same,effect on VEGF-induced activation of Akt,activation of Akt,able to block
same,effect on vitreous-induced collagen contraction of RPEM cells,RPEM cells [2],completely blocked
same,effect on angiogenesis in oxygen-induced retinopathy,[3],abrogated
same,effect on vitreous-induced survival of RPEM cells,RPEM cells [4],prevented
